In ChEMBL document CHEMBL4152218, “Novel hydrazide-hydrazone and amide substituted coumarin derivatives: Synthesis, cytotoxicity screening, microarray, radiolabeling and in vivo pharmacokinetic studies” (Eur J Med Chem, 2018):

How the values were obtained:
[1] = Selectivity index, ratio of IC50 for hTERT-RPE1 cells to IC50 for human HepG2 cells; type: toxicity; conditions: hTERT-RPE1 cells versus HepG2 cells, read-out: Ratio IC50
hTERT-BJ [2] = assay: Cytotoxicity against hTERT-BJ cells after 48 hrs by resazurin dye-based fluorescence assay; type: cell-based; conditions: Homo sapiens
[3] = Selectivity index, ratio of IC50 for hTERT-RPE1 cells to IC50 for human CCRF-CEM cells; type: toxicity; conditions: hTERT-RPE1 cells versus CCRF-CEM cells, read-out: Ratio IC50
hTERT-BJ [4] = assay: Cytotoxicity against hTERT-BJ cells at 12.50 uM after 48 hrs by resazurin dye-based fluorescence assay relative to control; type: cell-based; conditions: human, 12.5 µM
HepG2 = assay: Antiproliferative activity against human HepG2 cells after 48 hrs by resazurin dye-based fluorescence assay; type: functional, cell-based; conditions: HepG2, 48 h
TERT-RPE1 [5] = assay: Cytotoxicity against hTERT-RPE1 cells at 12.50 uM after 48 hrs by resazurin dye-based fluorescence assay relative to control; type: cell-based; conditions: human, tert-rpe1, 48 h, 12.5 µM
[6] = Selectivity index, ratio of IC50 for hTERT-BJ cells to IC50 for human PANC1 cells; type: toxicity; conditions: hTERT-BJ cells versus PANC1 cells, read-out: Ratio IC50
TERT-RPE1 [7] = assay: Cytotoxicity against hTERT-RPE1 cells at 6.25 uM after 48 hrs by resazurin dye-based fluorescence assay relative to control; type: cell-based; conditions: human, tert-rpe1, 48 h
hTERT-BJ [8] = assay: Cytotoxicity against hTERT-BJ cells at 25 uM after 48 hrs by resazurin dye-based fluorescence assay relative to control; type: cell-based; conditions: human
TERT-RPE1 [9] = assay: Cytotoxicity against hTERT-RPE1 cells after 48 hrs by resazurin dye-based fluorescence assay; type: cell-based; conditions: Homo sapiens, RPE-1, 48 h
[10] = Selectivity index, ratio of IC50 for hTERT-BJ cells to IC50 for human HepG2 cells; type: toxicity; conditions: hTERT-BJ cells versus HepG2 cells, read-out: Ratio IC50
TERT-RPE1 [11] = assay: Cytotoxicity against hTERT-RPE1 cells at 25 uM after 48 hrs by resazurin dye-based fluorescence assay relative to control; type: cell-based; conditions: human, tert-rpe1, 48 h
hTERT-BJ [12] = assay: Cytotoxicity against hTERT-BJ cells at 50 uM after 48 hrs by resazurin dye-based fluorescence assay relative to control; type: cell-based; conditions: human
PANC-1 = assay: Antiproliferative activity against human PANC1 cells after 48 hrs by resazurin dye-based fluorescence assay; type: functional, cell-based; conditions: PANC-1, 48 h
TERT-RPE1 [13] = assay: Cytotoxicity against hTERT-RPE1 cells at 50 uM after 48 hrs by resazurin dye-based fluorescence assay relative to control; type: cell-based; conditions: human, tert-rpe1, 48 h
[14] = Selectivity index, ratio of IC50 for hTERT-BJ cells to IC50 for human CCRF-CEM cells; type: toxicity; conditions: hTERT-BJ cells versus CCRF-CEM cells, read-out: Ratio IC50
[15] = Selectivity index, ratio of IC50 for hTERT-RPE1 cells to IC50 for human PANC1 cells; type: toxicity; conditions: hTERT-RPE1 cells versus PANC1 cells, read-out: Ratio IC50
CCRF-CEM = assay: Antiproliferative activity against human CCRF-CEM cells after 48 hrs by resazurin dye-based fluorescence assay; type: functional, cell-based
hTERT-BJ [16] = assay: Cytotoxicity against hTERT-BJ cells at 6.25 uM after 48 hrs by resazurin dye-based fluorescence assay relative to control; type: cell-based; conditions: human

Structure (SMILES) | selectivity ratio [1] | IC50 (hTERT-BJ [2]) | selectivity ratio [3] | Activity (hTERT-BJ [4]) | IC50 (HepG2) | Activity (TERT-RPE1 [5]) | selectivity ratio [6] | Activity (TERT-RPE1 [7]) | Activity (hTERT-BJ [8]) | IC50 (TERT-RPE1 [9]) | selectivity ratio [10] | Activity (TERT-RPE1 [11]) | Activity (hTERT-BJ [12]) | IC50 (PANC-1) | Activity (TERT-RPE1 [13]) | selectivity ratio [14] | selectivity ratio [15] | IC50 (CCRF-CEM) | Activity (hTERT-BJ [16])
CCOc1ccc(NC(=O)c2cc3ccccc3oc2=O)cc1 | > 4.83 | > 50 µM | > 2.79 | 2.4% | 10.4 µM | 12.77% | > 3.74 | 7.48% | 2.82% | > 50 µM | > 4.83 | 22.19% | 3.08% | 13.4 µM | 23.27% | > 2.79 | > 3.74 | 17.9 µM | 0.59%
O=C(N/N=C/c1cccnc1)c1cc2ccc(O)cc2oc1=O | > 2.72 | > 50 µM | > 3.55 | 1.26% | 18.4 µM | 12.79% | > 19.8 | 8.83% | 1.99% | > 50 µM | > 2.72 | 14.34% | 2.27% | 2.52 µM | 20.79% | > 3.55 | > 19.8 | 14.1 µM | 0.5%
CCOc1ccc(NC(=O)c2cc3ccc(O)cc3oc2=O)cc1 | > 2.88 | > 50 µM | > 3.97 | 15.98% | 17.3 µM | 13.91% | > 3.5 | 11.23% | 30.03% | > 50 µM | > 2.88 | 19.22% | 31.23% | 14.3 µM | 36.28% | > 3.97 | > 3.5 | 12.6 µM | 10.17%
O=C(N/N=C/c1ccncc1)c1cc2cc([N+](=O)[O-])ccc2oc1=O | > 3.15 | > 50 µM | > 3.86 | 5.5% | 15.8 µM | 10.1% | > 1.92 | 6.97% | 6.48% | > 50 µM | > 3.15 | 11.23% | 7.55% | 26.1 µM | 13.97% | > 3.86 | > 1.92 | 13 µM | 0.78%
COc1cccc2c1C(=O)c1c(O)c3c(c(O)c1C2=O)C[C@@](O)(C(=O)CO)C[C@@H]3O[C@H]1C[C@H](N)[C@H](O)[C@H](C)O1 [DOXORUBICIN] | < 1.15 | < 6.25 µM | < 5.95 |  | 5.43 µM |  | < 0.91 |  |  | < 6.25 µM | < 1.15 |  |  | 6.9 µM |  | < 5.95 | < 0.91 | 1.05 µM | 
CCOc1ccc2nc(Cl)c(/C=N/NC(=O)c3cc4cc(Br)ccc4oc3=O)cc2c1 | > 1.72 | > 50 µM | > 3.87 | 1.77% | 29 µM | 12.4% | > 2.94 | 5.41% | 2.63% | > 50 µM | > 1.72 | 13.67% | 2.67% | 17 µM | 20.15% | > 3.87 | > 2.94 | 12.9 µM | 0.53%
O=C(N/N=C/c1cccnc1)c1cc2cc([N+](=O)[O-])ccc2oc1=O | > 2.94 | > 50 µM | > 2.92 | 5.49% | 17 µM | 2.22% | > 4.24 | 1.1% | 3.22% | > 50 µM | > 2.94 | 10.95% | 3.99% | 11.8 µM | 17.11% | > 2.92 | > 4.24 | 17.1 µM | 3.59%
O=C(N/N=C/c1cc2ccccc2nc1Cl)c1cc2cc([N+](=O)[O-])ccc2oc1=O | > 2.2 | > 50 µM | > 1.92 | 1.37% | 22.8 µM | 0.73% | > 1.29 | 1.3% | 1.77% | > 50 µM | > 2.2 | 1.96% | 2.73% | 38.8 µM | 2.33% | > 1.92 | > 1.29 | 26 µM | 1.2%
CCOc1ccc(NC(=O)c2cc3cc(Br)ccc3oc2=O)cc1 | > 1.35 | > 50 µM | > 2.3 | 1.19% | 37 µM | 9.63% | > 2.97 | 3.04% | 1.86% | > 50 µM | > 1.35 | 13.28% | 3.3% | 16.8 µM | 16.45% | > 2.3 | > 2.97 | 21.8 µM | 2.3%
Cc1noc(NS(=O)(=O)c2ccc(NC(=O)c3cc4ccccc4oc3=O)cc2)c1C | > 2.09 | > 50 µM | > 1.88 | 10.4% | 24 µM | 13.72% | > 2.51 | 9.28% | 15.88% | > 50 µM | > 2.09 | 33.32% | 26.66% | 19.9 µM | 47.61% | > 1.88 | > 2.51 | 26.6 µM | 8.49%
O=C(N/N=C/c1ccncc1)c1cc2ccccc2oc1=O | > 2.91 | > 50 µM | > 16.1 | 1.23% | 17.2 µM | 4.08% | > 5.13 | 0.65% | 3.9% | > 50 µM | > 2.91 | 12.2% | 1.73% | 9.75 µM | 13.73% | > 16.1 | > 5.13 | 3.11 µM | 0.6%
CCOc1ccc2nc(Cl)c(/C=N/NC(=O)c3cc4ccccc4oc3=O)cc2c1 | > 1.51 | > 50 µM | > 7.92 | 5.65% | 33.1 µM | 1.23% | > 1.67 | 1.13% | 3.92% | > 50 µM | > 1.51 | 9.5% | 3.64% | 29.9 µM | 9.97% | > 7.92 | > 1.67 | 6.32 µM | 2.77%
Cc1noc(NS(=O)(=O)c2ccc(NC(=O)c3cc4ccc(O)cc4oc3=O)cc2)c1C | > 1.29 | > 50 µM | > 2.33 | 3.52% | 38.8 µM | 5.89% | > 3.09 | 0.99% | 3.63% | > 50 µM | > 1.29 | 5.92% | 5% | 16.2 µM | 5.78% | > 2.33 | > 3.09 | 21.5 µM | 1.17%
Cc1noc(NS(=O)(=O)c2ccc(NC(=O)c3cc4cc(Br)ccc4oc3=O)cc2)c1C | > 5.68 | > 50 µM | > 3.43 | 1.2% | 8.8 µM | 10.36% | > 1.74 | 1.84% | 3.04% | > 50 µM | > 5.68 | 12.79% | 13.26% | 28.7 µM | 26.26% | > 3.43 | > 1.74 | 14.6 µM | 0.95%
